# Source: patent US8030498B2, “Benzoylpyrazole compounds and herbicides containing them” (Ishihara Sangyo Kaisha, Ltd., priority 2005, dated 2011)
# Columns and labels:
# corn = test: Test Example 2: soil application on the day after sowing, growth inhibition rate, corn; type: in vivo, Zea mays L.; details: 250 g/ha active ingredient, observed on 19th to 24th day
# How it was run: (§1)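 Seeds were sown in upland field soil in pots, and on the following day compounds formulated as wettable powders or emulsifiable concentrates were diluted in water (500 liter per hectare) and sprayed onto the soil at prescribed active-ingredient doses. Growth was scored visually 19–24 days later, 0 = untreated to 100% = complete kill.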
# [1] = system: greenfoxtail (Setaria viridis L.); test: Test Example 1: foliar treatment, growth inhibition rate, greenfoxtail; type: in vivo; details: 31 g/ha active ingredient, visually observed 17th to 23rd day after application
# How it was run: (§2)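 Plants grown in upland soil in pots were sprayed on the foliage at set leaf stages (corn 2.0–3.5, greenfoxtail 1.0–3.0, rice 1.0–2.5, wheat 1.7–3.4 leaves) with wettable powder or emulsifiable concentrate formulations diluted in water at 500 L/ha plus 0.1 vol % spreader. Growth inhibition was scored visually 17–23 days later.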
# velvetleaf = test: Test Example 2: soil application on the day after sowing, growth inhibition rate, velvetleaf; type: in vivo, Abutilon theophrasti MEDIC.; details: 250 g/ha active ingredient, observed on 19th to 24th day
# How it was run: as §1
# [2] = system: soybean (Glycine max Merr.); test: Test Example 1: foliar treatment, growth inhibition rate, soybean; type: in vivo; details: 31 g/ha active ingredient, visually observed 17th to 23rd day after application
# How it was run: (§3)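 Visual scoring of growth inhibition, 0% (untreated) to 100% (complete kill), on days 17–23 following post-emergence spray of formulated compound in water (500 L/ha, 0.1 vol % spreader); plants treated at set leaf stages, e.g. corn 2.0–3.5, wheat 1.7–3.4.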
# [3] = system: prickly sida (Sida spinosa L.); test: Test Example 1: foliar treatment, growth inhibition rate, prickly sida; type: in vivo; details: 31 g/ha active ingredient, visually observed 17th to 23rd day after application
# How it was run: as §3
# barnyardgrass = test: Test Example 2: soil application on the day after sowing, growth inhibition rate, barnyardgrass; type: in vivo, Echinochloa crus-galli L.; details: 250 g/ha active ingredient, observed on 19th to 24th day
# How it was run: as §1
# prickly sida = test: Test Example 2: soil application on the day after sowing, growth inhibition rate, prickly sida; type: in vivo, Sida spinosa L.; details: 250 g/ha active ingredient, observed on 19th to 24th day
# How it was run: as §1
# wheat = test: Test Example 2: soil application on the day after sowing, growth inhibition rate, wheat; type: in vivo, Triticum spp.; details: 250 g/ha active ingredient, observed on 19th to 24th day
# How it was run: as §1
# greenfoxtail = test: Test Example 2: soil application on the day after sowing, growth inhibition rate, greenfoxtail; type: in vivo, Setaria viridis L.; details: 250 g/ha active ingredient, observed on 19th to 24th day
# How it was run: as §1
# crabgrass = test: Test Example 2: soil application on the day after sowing, growth inhibition rate, crabgrass; type: in vivo, Digitaria sanguinalis L.; details: 250 g/ha active ingredient, observed on 19th to 24th day
# How it was run: as §1
# [4] = system: crabgrass (Digitaria sanguinalis L.); test: Test Example 1: foliar treatment, growth inhibition rate, crabgrass; type: in vivo; details: 31 g/ha active ingredient, visually observed 17th to 23rd day after application
# How it was run: as §3
# [5] = system: velvetleaf (Abutilon theophrasti MEDIC.); test: Test Example 1: foliar treatment, growth inhibition rate, velvetleaf; type: in vivo; details: 31 g/ha active ingredient, visually observed 17th to 23rd day after application
# How it was run: (§4)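 Seeds were sown in upland field soil in pots. At the target leaf stage (corn 2.0–3.5; greenfoxtail 1.0–3.0; rice 1.0–2.5; wheat 1.7–3.4), the formulated compound, diluted at a water volume of 500 L/ha with 0.1 vol % spreader, was applied by small sprayer. Plants were rated by eye on days 17–23.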
# [6] = system: barnyardgrass (Echinochloa crus-galli L.); test: Test Example 1: foliar treatment, growth inhibition rate, barnyardgrass; type: in vivo; details: 31 g/ha active ingredient, visually observed 17th to 23rd day after application
# How it was run: as §4
# [7] = system: redroot pigweed (Amaranthus retroflexus L.); test: Test Example 1: foliar treatment, growth inhibition rate, redroot pigweed; type: in vivo; details: 31 g/ha active ingredient, visually observed 17th to 23rd day after application
# How it was run: as §3
# rice (Oryza sativa L.) = test: Test Example 1: foliar treatment, growth inhibition rate, rice; type: in vivo; details: 31 g/ha active ingredient, visually observed 17th to 23rd day after application
# How it was run: as §2
# wheat (Triticum spp.) = test: Test Example 1: foliar treatment, growth inhibition rate, wheat; type: in vivo; details: 31 g/ha active ingredient, visually observed 17th to 23rd day after application
# How it was run: as §2
# rice = test: Test Example 2: soil application on the day after sowing, growth inhibition rate, rice; type: in vivo, Oryza sativa L.; details: 250 g/ha active ingredient, observed on 19th to 24th day
# How it was run: as §1
# redroot pigweed = test: Test Example 2: soil application on the day after sowing, growth inhibition rate, redroot pigweed; type: in vivo, Amaranthus retroflexus L.; details: 250 g/ha active ingredient, observed on 19th to 24th day
# How it was run: as §1
# corn (Zea mays L.) = test: Test Example 1: foliar treatment, growth inhibition rate, corn; type: in vivo; details: 31 g/ha active ingredient, visually observed 17th to 23rd day after application
# How it was run: as §2
# soybean = test: Test Example 2: soil application on the day after sowing, growth inhibition rate, soybean; type: in vivo, Glycine max Merr.; details: 250 g/ha active ingredient, observed on 19th to 24th day
# How it was run: as §1
Compound,Growth inhibition rate (%) Corn (corn),Growth inhibition rate (%) Greenfoxtail [1],Growth inhibition rate (%) Velvetleaf (velvetleaf),Growth inhibition rate (%) Soybean [2],Growth inhibition rate (%) Prickly sida [3],Growth inhibition rate (%) Barnyardgrass (barnyardgrass),Growth inhibition rate (%) Prickly sida (prickly sida),Growth inhibition rate (%) Wheat (wheat),Growth inhibition rate (%) Greenfoxtail (greenfoxtail),Growth inhibition rate (%) Crabgrass (crabgrass),Growth inhibition rate (%) Crabgrass [4],Growth inhibition rate (%) Velvetleaf [5],Growth inhibition rate (%) Barnyardgrass [6],Growth inhibition rate (%) redroot pigweed [7],Growth inhibition rate (%) Rice (rice (Oryza sativa L.)),Growth inhibition rate (%) Wheat (wheat (Triticum spp.)),Growth inhibition rate (%) Rice (rice),Growth inhibition rate (%) redroot pigweed (redroot pigweed),Growth inhibition rate (%) Corn (corn (Zea mays L.)),Growth inhibition rate (%) Soybean (soybean),other results
COC(=O)c1c(S(C)(=O)=O)ccc(C(=O)c2cnn(C)c2OC(=O)SCc2ccccc2)c1C [compound 92],0%,60%,50%,10%,10%,80%,60%,0%,70%,95%,0%,70%,0%,10%,0%,0%,80%,70%,0%,0%,–
CCn1ncc(C(=O)c2ccc(S(C)(=O)=O)c(OCCOC)c2C)c1OC(=O)SC(C)C [compound 208],0%,100%,50%,100%,40%,100%,30%,0%,100%,100%,100%,95%,95%,100%,80%,0%,98%,100%,0%,0%,–
CCSC(=O)Oc1c(C(=O)c2ccc(S(C)(=O)=O)c(COC3CCOC3)c2C)cnn1C (stereo not shown) [compound 223],0%,90%,80%,100%,70%,70%,60%,0%,70%,100%,100%,95%,100%,90%,70%,0%,40%,90%,0%,0%,–
"CCSC(=O)Oc1c(C(=O)c2ccc(S(C)(=O)=O)c(C(=O)OC)c2C)cnn1C [Compound No. 1, 5-(ethylthio)carbonyloxy-1-methylpyrazol-4-yl 3-(methoxycarbonyl)-2-methyl-4-(methylsulfonyl)phenyl ketone]",–,–,–,–,70%,–,–,–,–,–,–,–,–,100%,–,–,–,–,–,–,inhibition at 250 g/ha (corn; Zea mays): 0%; pest or weed control at 31 g/ha ([1]; Setaria viridis): 100%; inhibition at 250 g/ha (velvetleaf; Abutilon theophrasti): 60%; inhibition at 250 g/ha (barnyardgrass; Echinochloa crus-galli): 100%; inhibition at 250 g/ha (prickly sida; Sida spinosa): 60%; inhibition at 250 g/ha (wheat; Triticum aestivum): 10%; inhibition at 250 g/ha (greenfoxtail; Setaria viridis): 100%; inhibition at 250 g/ha (crabgrass; Digitaria sanguinalis): 100%; pest or weed control at 31 g/ha ([4]; Digitaria sanguinalis): 80%; pest or weed control at 31 g/ha ([5]; Abutilon theophrasti): 100%; pest or weed control at 31 g/ha ([6]; Echinochloa crus-galli): 90%; pest or weed control at 31 g/ha (rice (Oryza sativa L.); Oryza sativa): 80%; pest or weed control at 31 g/ha (wheat (Triticum spp.); Triticum): 0%; inhibition at 250 g/ha (rice; Oryza sativa): 95%; inhibition at 250 g/ha (redroot pigweed; Amaranthus retroflexus): 100%; pest or weed control at 31 g/ha (corn (Zea mays L.); Zea mays): 10%; inhibition at 250 g/ha (soybean; Glycine max): 75%
